Source: patent US8088828B2, “Treating benign prostate hyperplasia with SARMS” (priority 2002, dated 2012)

Tested on: intact male Sprague-Dawley rats
Assay: Organ weights in intact male rats after 3, 6 or 9 days of daily subcutaneous injections
Assay type: in vivo, rat
Procedure: Methods: Male Sprague-Dawley rats were purchased from Harlan Biosciences (Indianapolis, Ind.). The animals were maintained on a 12-h cycle of light and dark with food and water available ad libitum. Male Sprague-Dawley rats weighing 189 to 226 g were randomly distributed into groups of 5 animals. The intact male rats were treated with hydroxy-flutamide (0.5, 1, 5, 10 or 25 mg/kg), finasteride (5 mg/kg), Compound VII (0.5, 1, 5, 10, 25 mg/kg) or vehicle for 3, 6, or 9 days. The drugs were dissolved in DMSO:PEG300 (20:80, v:v) and administered via daily subcutaneous injections, and the dosages were adjusted based on animal's body weight, which was measured on a daily basis. A group of castrated rats (n=5) was also included as control for each time point. […] The organ weights were normalized with the body weights. Percentage changes were determined by comparison to intact animals. Statistical analyses of all the parameters were performed by single-factor ANOVA with the alpha value set a priori at p<0.05.

[1] = 3 days, all doses (0.5, 1, 5, 10, mg/kg) s.c.

Compound | effect on levator ani muscle weight (3 days, 5 mg/kg s.c.) | prostate weight (compared to intact animals) (3 days, 5 mg/kg s.c.) | seminal vesicle weight (compared to intact animals) (3 days, 5 mg/kg s.c.) | changes in levator ani muscle weight (6 days, 5 mg/kg s.c.) | prostate weight (compared to intact animals) (6 days, 5 mg/kg s.c.) | seminal vesicle weight (compared to intact animals) (6 days, 5 mg/kg s.c.) | change in levator ani muscle weight (9 days, 5 mg/kg s.c.) | prostate weight (compared to intact animals) (9 days, 5 mg/kg s.c.) | seminal vesicle weight (compared to intact animals) (9 days, 5 mg/kg s.c.) | levator ani muscle weight (compared to intact animals) [1] | prostate weight (normalized to body weight, compared to intact animals) [1] | seminal vesicle weight (compared to intact animals) [1] | levator ani muscle weight (compared to intact animals) (6 days, 25 mg/kg s.c.) | prostate weight (compared to intact animals) (6 days, 25 mg/kg s.c.) | seminal vesicle weight (compared to intact animals) (6 days, 25 mg/kg s.c.) | organ weights (prostate, seminal vesicle, levator ani muscle) (6 days, lower dose groups (0.5, 1, 5, 10 mg/kg) s.c.) | effects on all the organ weights compared to previous time points (9 days, 25 mg/kg s.c.) | changes in prostate, seminal vesicle and levator ani muscle weights (9 days, lower doses (0.5, 1, 5, 10 mg/kg) s.c., dose-dependent)
CC(C)(C)NC(=O)[C@H]1CC[C@H]2[C@@H]3CC[C@H]4NC(=O)C=C[C@]4(C)[C@H]3CC[C@]12C [finasteride] | no effect | 59% | 38% | no significant changes | 67% | 47% | not significantly changed | 55% | 29% |  |  |  |  |  |  |  |  | 
CC(C)(O)C(=O)Nc1ccc([N+](=O)[O-])c(C(F)(F)F)c1 [hydroxy-flutamide] |  |  |  |  |  |  |  |  |  | ~85% | approximately 60% | ~50% | 65% | 54% | 41% | returned to the levels observed in intact animals | maintained its effects on all the organ weights at a similar level | moderate decreases
